Experimental data published in US6528517B1, “Synthesis of quinobenzoxazine analogues with topoisomerase II and quadruplex interactions for use as antineoplastic agents” (Board of Regents, The University of Texas System, priority 1998, dated 2003).

Key:
supercoiled pHOT1 DNA = assay: DNA unwinding assay; assay type: biochemical; conditions: concentration shifting topoisomers to the middle position between relaxed and supercoiled bands
Method: A 22 μl mixture of 0.25 μg of supercoiled pHOT1 DNA, 5 units of topoisomerase I in topoisomerase I buffer (provided with the kit) was incubated at 37° C. for 30 min. Two μl of various concentrations of drug was added, and the incubation was continued for another 30 min. The reactions were terminated by addition of SDS to 1%. Proteinase K was added to the reaction mixtures to ca. 50 μg/ml, and the reaction mixtures were incubated for 15-20 min at 56° C. After adding 0.1 volume of 10×gel loading buffer, the reaction mixtures were extracted with an equal volume of CIA (Chloroform:isoamyl Alcohol; 24:1). The samples were loaded on an 1% agarous gel that was cast in TPE buffer (36 mM Tris-HCl, pH 7.8, 1 mM EDTA, 30 mM NaH2PO4) and 0.2 μg/ml Chloroquine. The gel was run in TPE buffer at room temperature at 10 volts for 20 h, destained in water for 15 min, stained in 0.05 μg/ml ethidium bromide for 15 min, and destained again in water for 15 min. The gel was then photographed, scanned by FluoroImager, and analyzed by ImageQuaNT software (Molecular Dynamics).

B16 melanoma = assay: Cancer cell growth inhibition assay (MTT); assay type: cell-based, murine; conditions: Mus musculus, B16
Method: (§1) Exponentially growing cells in 0.1 ml medium were seeded on Day 0 in 96-well microtiter plates. On Day 1, 0.1-ml aliquots of medium containing graded concentrations test agent were added in duplicate to the cell plates. After incubation at 37° C. in a humidified incubator, the plates were centrifuged briefly (1-2 min at 1000 rpm), and 100 μl of the growth medium was removed. Cell cultures were incubated with 50 μl of 3-(4,5-dimethylthiazyl-2-yl)-2,5-diphenyltetrazolium bromide MTT, 1 mg/ml in Dubecco's PBS for 4 h at 37° C. The resulting purple formazan precipitate was solubilized with 200 μl of 0.4 N HCl in isopropyl alcohol. Absorbance was quantitated using a Bio-Rad Model 3550 microplate reader at a test wavelength of 570 nm and a reference wavelength of 630 nm. Absorbance values were transferred to a 486 personal computer, and the IC50 values were determined using the computer program EZ-ED50 (Chen et al., 1993).

DU-145 prostate = assay: Cancer cell growth inhibition assay (MTT); assay type: cell-based, human; conditions: Homo sapiens, DU-145
Method: as §1

Raji lymphoma = assay: Cancer cell growth inhibition assay (MTT); assay type: cell-based, human; conditions: Homo sapiens, Raji
Method: as §1

HT-29 colon = assay: Cancer cell growth inhibition assay (MTT); assay type: cell-based, human; conditions: Homo sapiens, HT-29
Method: as §1

MDA-231 breast = assay: Cancer cell growth inhibition assay (MTT); assay type: cell-based, human; conditions: Homo sapiens, MDA-MB-231
Method: as §1

H226 non-small-cell lung = assay: Cancer cell growth inhibition assay (MTT); assay type: cell-based, human; conditions: Homo sapiens, NCI-H226
Method: as §1

IC50 (B16 melanoma): 170 ± 10 nM
IC50 (DU-145 prostate): 160 ± 30 nM
IC50 (Raji lymphoma): 50 ± 6 nM
IC50 (HT-29 colon): 160 ± 10 nM
IC50 (MDA-231 breast): 160 ± 20 nM
IC50 (H226 non-small-cell lung): 90 ± 3 nM
Structure (SMILES): N[C@H]1CCN(c2c(F)cc3c(=O)c(C(=O)O)cn4c3c2Oc2ccccc2-4)C1 [Compound A-62176, 1-(3-aminopyrrolidin-1-yl)-2-fluoro-4-oxo-4H-quino[2,3,4-i,j][1,4]benzoxazine-5-carboxylic acid, reference compound]
DNA unwinding concn (supercoiled pHOT1 DNA): 50 µM
